Test results: US5200424A, “Use of 10-membered ring lactones as lipid regulators” (priority 1990, dated 1993)
pIC50: −log10 of the molar value.

What was measured:
[1] = tested on: cholesterol biosynthesis in HEP-G2 cells; assay: Cholesterol biosynthesis inhibition in HEP-G2 liver cell cultures (14C-acetate); type: cell-based; conditions: Homo sapiens, HepG2, 1 h preincubation, 3 h with (14C)acetate, read-out: inhibits biosynthesis by 50% at
Experimental: (§1) Monolayers of HEP-G2 cells in liproprotein-free nutrient medium are preincubated with appropriate concentrations of the substances of the formula I to be tested for one hour. After addition of the […] biosynthesis precursor sodium (^14 C)acetate the incubation is continued for 3 hours. After this a portion of the cells is subjected to alkaline hydrolysis after addition of an internal standard of ^3 H-cholesterol. The lipids from the hydrolyzed cells are extracted with a chloroform/methanol mixture. This lipid mixture is, after addition of carrier cholesterol, fractionated by preparative thin-layer chromatography, the cholesterol band is stained and then isolated, and the amount of ^14 C-cholesterol formed from the ^14 C-precursor is determined by scintigraphy. Cellular protein was determined in an aliquot of the cells so that the amount of ^14 C-cholesterol formed from ^14 C-precursor per mg of cellular protein per unit time can be calculated. The control is used for comparison for the inhibitory effect of an added test product so that it is possible to state directly the inhibition of the cholesterol biosynthesis at a particular molar concentration of the test product in the medium. The integrity of the cell culture and the absence of cell damage owing to exposure to the product is assessed morphologically (light microscopy) and measured biochemically by determining the lactic dehydrogenase release into the incubation medium on aliquots of the cell culture.

[2] = tested on: HEP-G2 cells; assay: Integrity of the cell culture / cell damage (light microscopy, lactic dehydrogenase release); type: cell-based
Experimental: as §1, with “The control is used for comparison for the inhibitory effect of an added test product so that it is possible to state directly the inhibition of the cholesterol biosynthesis at a particular molar concentration of the test product in the medium.” left out

[3] = Body weight, relative liver weight and feed consumption in rats; type: in vivo, Rat, male, strain: HOE WISKf (SPF 71); conditions: 15 mg/kg/day, male rat, after treatment
Experimental: (§2) Male rats with an initial weight above 180 g received the test product of the formula I in polyethylene glycol 400 by gavage once a day (in the morning) (0.5 ml/100 g of body weight); the relevant control group received only the same amount of solvent. The last (7th) administration took place 24 hours before blood sampling and sacrifice. There was free access to feed and water during the test. Feed was withdrawn 24 hours before the retroorbital blood sampling, which took place under light ether anesthesia before and after the treatment period (that is to say on the 1st and 8th day). Serum glutamic-oxalate transaminase (SGOT), serum glutamic-pyruvic transaminase (SGPT), alkaline phosphatase (aP), bilirubin and creatinine were determined in the serum of each individual animal. The total glycerol was measured from the pooled serum of all animals in a group as measure of the triglycerides (Eggstein, M. Kreutz, F. H.: Klin. Wschr. 44, 262 and 267 (1966); Wahlefeld, A. W., in: H. O. Bergmeier: Methoden der enzymatischen Analyse (Methods of enzymatic analysis), 2nd Edition, Volume II, Verlag Chemie 1974, Page 1878). Immediately after the blood sampling the animals were sacrificed by distortion of the spinal column. The livers were removed, and the relative liver weight was determined. In addition, the body weight gain and the feed consumption were investigated. The statistical analysis was carried out by Student's t test.

[4] = Serum enzymes, bilirubin and creatinine in rats; type: in vivo, Rat, male, strain: HOE WISKf (SPF 71)
Experimental: as §2

[5] = tested on: serum lipoproteins; assay: Lipoprotein fractionation by ultracentrifugation in rats (serum cholesterol, protein, triglycerides; hypolipemic effect); type: in vivo, Rat, male, strain: HOE WISKf (SPF 71)
Experimental: as §2, with “The total glycerol was measured from the pooled serum of all animals in a group as measure of the triglycerides (Eggstein, M. Kreutz, F. H.: Klin. Wschr. 44, 262 and 267 (1966); Wahlefeld, A. W., in: H. O. Bergmeier: Methoden der enzymatischen Analyse (Methods of enzymatic analysis), 2nd Edition, Volume II, Verlag Chemie 1974, Page 1878).” left out
To analyze the serum lipoproteins, after the treatment period the serum of all rats in a group was pooled.

[6] = 15 mg/kg/day, male rat, after treatment (8th day)
[7] = 15 mg/kg/day, male rat, before treatment (1st day)
[8] = 15 mg/kg/day, male rat, by gavage, 7 administrations

CC1CC(O)C=CC(O)C(O)CC(=O)O1 (stereo not shown)
pIC50 [1]: 7.00
cell culture damage [2]: not damaged
% Change from control, Body weight after [3]: -3%
% Change from control, rel. feed consumption after [3]: -1%
Bilirubin, Final, mean [4, 6]: 2.0 µmol/L
Creatinine, Final, mean [4, 6]: 64 µmol/L
Serum enzymes SGOT, Final, mean [4, 6]: 56 U/L
Serum enzymes SGPT, Final, mean [4, 6]: 25 U/L
Serum enzymes aP, Final, mean [4, 6]: 247 U/L
Bilirubin, Initial, mean [4, 7]: 2.8 µmol/L
Creatinine, Initial, mean [4, 7]: 67 µmol/L
Serum enzymes SGOT, Initial, mean [4, 7]: 41 U/L
Serum enzymes SGPT, Initial, mean [4, 7]: 29 U/L
Serum enzymes aP, Initial, mean [4, 7]: 359 U/L
tolerability parameters: SGOT, SGPT, aP, serum bilirubin and serum creatinine ([4]; rat): not pathologically changed
% Change compared with control, Protein LDL [5, 8]: -20%
% Change compared with control, Protein VLDL [5, 8]: -12%
% Change compared with control, Total cholesterol HDL [5, 8]: -13%
% Change compared with control, Total cholesterol LDL [5, 8]: -31%
% Change compared with control, Total cholesterol VLDL [5, 8]: -40%
% Change compared with control, Triglycerides VLDL [5, 8]: -22%
Cholesterol HDL/LDL Based on control ([5]; 15 mg/kg/day, male rat, by gavage, control 1.00): 1.26
Cholesterol HDL/LDL ([5]; 15 mg/kg/day, male rat, by gavage, control 3.75): 4.74
reduction in the triglycerides (mainly transported in the VLDL) ([5]; rat): distinct reduction
vasoprotective index HDL-cholesterol: LDL-cholesterol ([5]; rat): significant increase
reduction in the atherogenic serum lipoproteins LDL and VLDL (cholesterol content) ([5]; rat, at one seventh of the dose of clofibrate, compared with clofibrate): equally great reduction
reduction in the HDL fraction ([5]; rat, compared with clofibrate): only half as large
vasoprotective index HDL-cholesterol: LDL-cholesterol compared with clofibrate ([5]; rat, compared with clofibrate): distinctly higher than with clofibrate
